Active and inactive are the calls of the source. No cut-off for these calls is given here.
Tests used:
[1] = tested on: SH-SY5Y; assay: cells; conditions: Homo sapiens, 24 h, read-out: LD50
Description: Cytotoxicity against human SH-SY5Y cells assessed as lethal dose measured after 24 hrs by propidium iodide staining based fluorescent assay

[2] = Toxicity in overnight fasted C57BL/6 mouse model of cerulein-induced acute pancreatitis assessed as reversal of edema at 0.3 mg/kg, ip dosed 14 hrs after cerulein injection and measured 10 hrs after compound administration; format: organism-based; conditions: in vivo
[3] = tested on: Mus musculus; assay: Anti-inflammatory activity against overnight fasted cerulein-induced acute pancreatitis C57BL/6 mouse model assessed as reduction in parenchymal atrophy at 0.1 to 0.3 mg/kg, ip dosed 14 hrs after cerulein injection and measured 10 hrs after compound administration; format: functional, organism-based; conditions: dose 0.1-0.3 mg/kg
[4] = Toxicity in overnight fasted C57BL/6 mouse model of cerulein-induced acute pancreatitis assessed as increase in body weight at 0.1 mg/kg, ip dosed 14 hrs after cerulein injection and measured 10 hrs after compound administration; format: organism-based; conditions: in vivo
[5] = tested on: Mus musculus; assay: Anti-inflammatory activity against overnight fasted cerulein-induced acute pancreatitis C57BL/6 mouse model assessed as reduction in inflammatory cells at 0.1 to 0.3 mg/kg, ip dosed 14 hrs after cerulein injection and measured 10 hrs after compound administration; format: functional, organism-based; conditions: dose 0.1-0.3 mg/kg
[6] = Toxicity in overnight fasted C57BL/6 mouse model of cerulein-induced acute pancreatitis assessed as increase in body weight at 0.3 mg/kg, ip dosed 14 hrs after cerulein injection and measured 10 hrs after compound administration; format: organism-based; conditions: in vivo
[7] = Drug uptake in overnight fasted pancreas of cerulein-induced acute pancreatitis C57BL/6 mouse model at 0.1 mg/kg, ip dosed 14 hrs after cerulein injection and measured 10 hrs after compound administration; format: ADME, organism-based; conditions: in vivo
[8] = tested on: Mus musculus; assay: Anti-inflammatory activity against overnight fasted cerulein-induced acute pancreatitis C57BL/6 mouse model assessed as reversal of pancreatic damage at 0.3 mg/kg, ip dosed 14 hrs after cerulein injection and measured 10 hrs after compound administration; format: functional, organism-based
[9] = tested on: Mus musculus; assay: Anti-inflammatory activity against overnight fasted cerulein-induced acute pancreatitis C57BL/6 mouse model assessed as reduction in severity of pancreatitis at 0.1 to 0.3 mg/kg, ip dosed 14 hrs after cerulein injection and measured 10 hrs after compound administration; format: functional, organism-based; conditions: dose 0.1-0.3 mg/kg
[10] = tested on: Mus musculus; assay: Anti-inflammatory activity against overnight fasted cerulein-induced acute pancreatitis C57BL/6 mouse model assessed as reversal of reversal of neutrophil infiltration at 0.3 mg/kg, ip dosed 14 hrs after cerulein injection and measured 10 hrs after compound administration; format: functional, organism-based

In the case of `O=C(NC12CC3CC(F)(CC(C1)c1ccccc13)C2)N[C@H]1CC[C@H](Oc2ccc(C(=O)O)cc2)CC1`, the CC50 [1] is reported as over 100 µM.

In the case of `O=C(NC12CC3CC(Cl)(CC(C1)c1ccccc13)C2)N[C@H]1CC[C@H](Oc2ccc(C(=O)O)cc2)CC1`, the Activity [2] is reported as “Non-Toxic”, the Activity [3] is reported as “Active” and the Activity [4] is reported as “Toxic”. For the same molecule, the Activity [5] was “Active”, the Activity [6] was “Toxic” and the CC50 [1] was over 100 µM. For the same molecule, the Drug uptake [7] was “Not Active”, the Activity [8] was “Active” and the Activity [9] was “Active”. The Activity [10] was “Active”.

With `CC12CC3CC(NC(=O)N[C@H]4CC[C@H](Oc5ccc(C(=O)O)cc5)CC4)(CC(C1)c1ccccc13)C2` the CC50 [1] was over 100 µM.

From ChEMBL document CHEMBL5036312, “From the Design to the In Vivo Evaluation of Benzohomoadamantane-Derived Soluble Epoxide Hydrolase Inhibitors for the Treatment of Acute Pancreatitis” (J Med Chem, 2021)
